Results from US11173160B2 (UNIVERSITY OF PITTSBURGH—OF THE COMMONWEALTH SYSTEM OF …, priority 2019, dated 2021).
“Also recorded” adds a separate entry of the source.

Tests used:
[1] = tested on: DIPG-007, DIPG-IV, and SF8628 cells; assay: direct Trypan-Blue automated cell count; format: cell-based, human; settings: 50 nM of TG02, 9 days of treatment, vs vehicle
Description: FIGS. 5A-5K provide that pharmacological inhibition of ERK5 triggered cell death and apoptosis in DIPG cells. […] (5C-5E).
Direct cell counts were performed using the Countess II FL Automated Cell Counter (ThermoFisher Scientific). Alamar blue viability (ThermoFisher Scientific) and the 5-bromo-2′-deoxyuridine (BrdU) incorporated cell proliferation assay (Cell Signaling Technology Cat #6813) were performed using the manufacturer's standard protocol. EC50 curve analysis was performed using raw fluorescent Alamar blue values that were inputted into PRISM 7.0. Drug concentrations were log 10 transformed and values normalized to percent viability with respect to vehicle treated cells. EC50 values were interpolated from a log inhibitor vs. normalized response with variable slope using a least square fit model.

Src = Src (Homo sapiens, UniProt P12931); settings: cited from earlier work
IGF-1R = IGF-1R (Homo sapiens, UniProt P08069); settings: cited from earlier work
CDK4 = CDK4 (Homo sapiens, UniProt P11802); settings: cited from earlier work
MEK1 = MEK1 (Homo sapiens, UniProt Q02750); settings: cited from earlier work
JAK3 = JAK3 (Homo sapiens, UniProt P52333); settings: cited from earlier work
Fms = Fms (Homo sapiens, UniProt P07333); settings: Source Millipore; 10-point titration in duplicates, done once; cited from earlier work
PDK1 = PDK1 (Homo sapiens, UniProt O15530); settings: cited from earlier work
PAK3 = PAK3 (Homo sapiens, UniProt O75914); settings: cited from earlier work
Aurora A = Aurora A (Homo sapiens, UniProt O14965); settings: cited from earlier work
MKK6 = MKK6 (Homo sapiens, UniProt P52564); settings: cited from earlier work
EGFR = EGFR (Homo sapiens, UniProt P00533); settings: cited from earlier work
Lck = Lck (Homo sapiens, UniProt P06239); settings: Source Millipore; 10-point titration in duplicates, done once; cited from earlier work
[2] = tested on: DIPG-13p and SF8628 cells; assay: cell growth and Annexin-PI apoptosis assay; format: cell-based, human
Description: FIG. 12E provides Annexin-PI quantification of DIPG cells treated in biological triplicates with ERK5 inhibitors at 48 h from (FIGS. 12C-12D).
Apoptosis was quantified using the Pacific Blue Annexin V Apoptosis Detection Kit with propidium iodide (BioLegend, San Diego, Calif. Cat #640926). Analysis was performed at the Flow Cytometry Core, Rangos Research Center, UPMC Children's Hospital of Pittsburgh.

Chain of Lck (P06239 whole entry): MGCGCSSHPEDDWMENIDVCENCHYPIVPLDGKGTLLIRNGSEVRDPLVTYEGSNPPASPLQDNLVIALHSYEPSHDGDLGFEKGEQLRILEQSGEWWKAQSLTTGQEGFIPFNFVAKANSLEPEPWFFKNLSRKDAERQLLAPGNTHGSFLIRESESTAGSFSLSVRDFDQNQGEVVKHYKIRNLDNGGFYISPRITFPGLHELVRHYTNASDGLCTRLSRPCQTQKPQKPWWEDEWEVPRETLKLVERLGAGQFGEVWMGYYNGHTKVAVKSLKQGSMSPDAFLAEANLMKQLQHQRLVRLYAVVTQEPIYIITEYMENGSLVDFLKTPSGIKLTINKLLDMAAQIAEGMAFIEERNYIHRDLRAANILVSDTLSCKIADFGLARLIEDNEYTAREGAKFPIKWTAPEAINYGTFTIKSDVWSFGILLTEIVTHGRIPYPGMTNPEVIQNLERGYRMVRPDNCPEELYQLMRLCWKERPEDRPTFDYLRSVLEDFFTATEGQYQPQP
Chain of JAK3 (P52333 whole entry): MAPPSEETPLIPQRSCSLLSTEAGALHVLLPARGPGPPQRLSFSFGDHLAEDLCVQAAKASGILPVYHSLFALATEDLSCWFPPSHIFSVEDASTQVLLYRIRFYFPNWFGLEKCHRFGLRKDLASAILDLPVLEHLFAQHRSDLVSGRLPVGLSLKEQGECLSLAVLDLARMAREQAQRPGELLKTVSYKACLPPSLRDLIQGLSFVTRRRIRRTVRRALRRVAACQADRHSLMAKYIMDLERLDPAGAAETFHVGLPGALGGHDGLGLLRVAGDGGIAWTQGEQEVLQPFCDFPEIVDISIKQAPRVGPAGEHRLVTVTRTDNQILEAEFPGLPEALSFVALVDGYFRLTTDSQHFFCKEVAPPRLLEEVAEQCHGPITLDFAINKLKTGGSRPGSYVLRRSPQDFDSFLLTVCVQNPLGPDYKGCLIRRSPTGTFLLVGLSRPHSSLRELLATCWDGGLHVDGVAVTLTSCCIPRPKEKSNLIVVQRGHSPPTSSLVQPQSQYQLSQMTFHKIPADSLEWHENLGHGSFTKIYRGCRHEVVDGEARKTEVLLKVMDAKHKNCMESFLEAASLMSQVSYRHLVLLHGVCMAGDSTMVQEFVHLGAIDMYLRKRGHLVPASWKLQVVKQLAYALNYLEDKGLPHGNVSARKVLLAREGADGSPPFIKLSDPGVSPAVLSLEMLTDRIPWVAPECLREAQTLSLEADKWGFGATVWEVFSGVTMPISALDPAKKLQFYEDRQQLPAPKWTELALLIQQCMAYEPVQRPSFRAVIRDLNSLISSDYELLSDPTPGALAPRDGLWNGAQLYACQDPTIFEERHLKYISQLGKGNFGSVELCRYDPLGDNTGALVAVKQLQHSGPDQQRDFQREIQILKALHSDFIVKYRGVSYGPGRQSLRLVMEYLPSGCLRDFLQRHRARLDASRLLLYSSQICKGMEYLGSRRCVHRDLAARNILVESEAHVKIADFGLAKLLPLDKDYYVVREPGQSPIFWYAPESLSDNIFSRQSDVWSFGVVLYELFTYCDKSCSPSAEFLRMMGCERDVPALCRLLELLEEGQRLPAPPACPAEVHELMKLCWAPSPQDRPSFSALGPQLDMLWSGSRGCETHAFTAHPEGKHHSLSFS
Chain of MEK1 (Q02750 whole entry): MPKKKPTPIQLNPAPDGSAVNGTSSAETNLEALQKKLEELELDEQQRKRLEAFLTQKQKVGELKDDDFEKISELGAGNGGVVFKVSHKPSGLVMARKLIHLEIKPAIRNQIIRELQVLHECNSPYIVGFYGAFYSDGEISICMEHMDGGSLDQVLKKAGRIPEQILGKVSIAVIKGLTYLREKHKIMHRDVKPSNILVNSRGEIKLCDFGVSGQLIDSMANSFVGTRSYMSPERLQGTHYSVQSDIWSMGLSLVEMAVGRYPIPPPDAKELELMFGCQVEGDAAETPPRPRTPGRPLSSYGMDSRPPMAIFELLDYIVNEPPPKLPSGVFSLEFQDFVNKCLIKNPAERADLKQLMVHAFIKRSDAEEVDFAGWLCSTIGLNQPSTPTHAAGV
Chain of PAK3 (O75914 whole entry): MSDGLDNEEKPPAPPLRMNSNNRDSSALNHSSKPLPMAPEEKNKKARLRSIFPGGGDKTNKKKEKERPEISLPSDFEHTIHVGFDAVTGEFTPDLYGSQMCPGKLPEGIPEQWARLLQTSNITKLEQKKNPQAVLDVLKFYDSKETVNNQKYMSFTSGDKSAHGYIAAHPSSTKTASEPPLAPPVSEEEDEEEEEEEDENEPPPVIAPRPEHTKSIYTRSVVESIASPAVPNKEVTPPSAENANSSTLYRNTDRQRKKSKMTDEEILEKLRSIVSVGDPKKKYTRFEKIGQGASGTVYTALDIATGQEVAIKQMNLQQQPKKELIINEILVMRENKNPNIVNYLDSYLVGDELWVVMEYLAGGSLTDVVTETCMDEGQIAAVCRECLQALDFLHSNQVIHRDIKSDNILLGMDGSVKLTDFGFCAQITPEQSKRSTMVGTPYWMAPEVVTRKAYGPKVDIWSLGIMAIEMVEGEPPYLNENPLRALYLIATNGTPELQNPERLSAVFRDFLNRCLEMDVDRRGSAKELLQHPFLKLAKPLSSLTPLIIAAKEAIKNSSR
Chain of PDK1 (O15530 whole entry): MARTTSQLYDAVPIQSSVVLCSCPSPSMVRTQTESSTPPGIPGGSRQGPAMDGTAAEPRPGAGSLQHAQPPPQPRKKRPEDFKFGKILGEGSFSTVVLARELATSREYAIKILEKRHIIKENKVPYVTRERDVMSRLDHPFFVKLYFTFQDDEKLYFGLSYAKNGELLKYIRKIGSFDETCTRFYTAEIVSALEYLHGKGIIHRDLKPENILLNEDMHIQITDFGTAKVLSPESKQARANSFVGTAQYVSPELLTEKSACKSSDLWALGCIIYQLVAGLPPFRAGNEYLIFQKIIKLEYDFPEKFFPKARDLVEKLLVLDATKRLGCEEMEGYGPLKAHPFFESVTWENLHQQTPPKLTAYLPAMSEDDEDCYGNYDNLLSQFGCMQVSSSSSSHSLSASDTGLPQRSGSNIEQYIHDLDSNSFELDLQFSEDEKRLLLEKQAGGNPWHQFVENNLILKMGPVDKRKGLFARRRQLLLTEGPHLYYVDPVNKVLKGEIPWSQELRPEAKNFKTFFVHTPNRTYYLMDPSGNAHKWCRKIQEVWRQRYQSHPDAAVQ
Chain of Aurora A (O14965 whole entry): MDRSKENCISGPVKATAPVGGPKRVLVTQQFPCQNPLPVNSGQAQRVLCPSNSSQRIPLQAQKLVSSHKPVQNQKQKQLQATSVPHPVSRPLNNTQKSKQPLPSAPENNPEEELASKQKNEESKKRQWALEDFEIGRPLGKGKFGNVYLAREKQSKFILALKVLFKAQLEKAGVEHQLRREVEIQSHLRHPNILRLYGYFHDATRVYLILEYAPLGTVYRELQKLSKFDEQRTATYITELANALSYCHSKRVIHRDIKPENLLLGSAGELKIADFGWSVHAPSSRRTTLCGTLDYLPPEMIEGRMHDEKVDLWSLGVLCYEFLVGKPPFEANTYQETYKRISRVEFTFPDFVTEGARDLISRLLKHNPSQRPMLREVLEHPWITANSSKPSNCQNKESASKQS
Chain of MKK6 (P52564 whole entry): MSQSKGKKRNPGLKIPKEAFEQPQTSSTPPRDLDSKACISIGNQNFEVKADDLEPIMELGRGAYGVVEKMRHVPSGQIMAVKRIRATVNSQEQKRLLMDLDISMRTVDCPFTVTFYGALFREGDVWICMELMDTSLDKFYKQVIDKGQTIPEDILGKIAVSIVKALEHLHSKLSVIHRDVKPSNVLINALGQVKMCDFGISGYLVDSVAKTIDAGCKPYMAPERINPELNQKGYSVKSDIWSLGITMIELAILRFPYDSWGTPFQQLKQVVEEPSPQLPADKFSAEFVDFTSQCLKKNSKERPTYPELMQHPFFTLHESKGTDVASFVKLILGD
Chain of CDK4 (P11802 whole entry): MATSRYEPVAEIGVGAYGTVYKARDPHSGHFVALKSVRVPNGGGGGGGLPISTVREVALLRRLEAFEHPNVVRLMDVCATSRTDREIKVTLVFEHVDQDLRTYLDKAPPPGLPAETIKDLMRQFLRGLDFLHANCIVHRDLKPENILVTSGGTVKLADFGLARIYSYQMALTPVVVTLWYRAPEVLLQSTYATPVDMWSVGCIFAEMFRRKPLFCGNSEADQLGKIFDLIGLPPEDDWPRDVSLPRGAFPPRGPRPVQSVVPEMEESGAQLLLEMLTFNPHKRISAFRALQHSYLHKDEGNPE
Chain of CDK4 (P24385 whole entry partner): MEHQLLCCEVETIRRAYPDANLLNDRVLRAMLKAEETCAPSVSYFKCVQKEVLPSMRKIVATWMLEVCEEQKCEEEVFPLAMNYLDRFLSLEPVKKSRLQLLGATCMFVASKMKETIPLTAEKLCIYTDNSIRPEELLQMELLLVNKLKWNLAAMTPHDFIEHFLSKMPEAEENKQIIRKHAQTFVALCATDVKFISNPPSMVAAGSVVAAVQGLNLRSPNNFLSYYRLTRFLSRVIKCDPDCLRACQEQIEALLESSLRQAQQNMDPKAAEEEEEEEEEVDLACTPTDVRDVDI

## CN1C/C=C/CCOc2cccc(c2)-c2ccnc(n2)Nc2cccc(c2)C1 [TG02, (16E)-14-methyl-20-oxa-5,7,14,27-tetraazatetracyclo[19.3.1.12,6.18,12]heptacosa-1(25),2(27),3,5,8(26),9,11,16,21,23-decaene]
[1]
  cell number: significant decreases in cell number
Src
  inhibition at 100 nm: less than 50%
IGF-1R
  inhibition at 100 nm: less than 50%
CDK4
  inhibition at 100 nm: less than 50%
MEK1
  inhibition at 100 nm: less than 50%
JAK3
  inhibition at 100 nm: less than 50%
Fms
  IC50: 27 nM
PDK1
  inhibition at 100 nm: less than 50%
PAK3
  inhibition at 100 nm: less than 50%
Aurora A
  inhibition at 100 nm: less than 50%
MKK6
  inhibition at 100 nm: less than 50%
EGFR
  inhibition at 100 nm: less than 50%
Lck
  IC50: 11 nM
[2]; 48 h, vs DMSO vehicle control
  apoptosis (Annexin-PI): induction of apoptosis; also recorded: increased populations in early apoptosis
  viable cells (Annexin negative, PI negative): decreased viable cells
[2]; vs vehicle
  cell growth: diminished cell growth
